{"source": "paper PMC3726442", "about": "(PLoS ONE, 2013)", "key": {"CYP3A4/5": {"system": "CYP3A4/5", "set-up": "method as in PMID 19088019", "details": "major primary metabolite, CYP3A4/5-mediated; cited from earlier work"}, "[1]": {"experiment": "Plasma concentrations of tamoxifen and its metabolites in breast cancer patients on tamoxifen, by HPLC-tandem mass spectrometry"}, "[2]": {"details": "all samples analyzed, n = 125, before daily 20 mg TAM dose"}}}
{"smiles": "CC/C(=C(\\c1ccccc1)c1ccc(OCCNC)cc1)c1ccccc1", "note": "[N-desmethyl-tamoxifen]", "values": [{"measurement": "share of primary TAM oxidation", "setting": "CYP3A4/5", "value": 90, "unit": "%"}, {"measurement": "mean plasma concentration (±SD)", "setting": "[1]; [2]", "value": "450.54 ± 188.79", "unit": "ng/mL"}, {"measurement": "median plasma concentration", "setting": "[1]; [2]", "value": 418.46, "unit": "ng/mL"}, {"measurement": "mean concentration relative to the TAM concentration", "setting": "[1]; all samples, n = 125", "value": "over 2 times"}, {"measurement": "plasma concentration, mean ±SD", "setting": "[1]; genotype SULT1A1 *2/*2, n = 15", "value": "459.42 ± 160.94", "unit": "ng/mL"}, {"measurement": "plasma concentration, median", "setting": "[1]; genotype SULT1A1 *2/*2, n = 15", "value": 432.49, "unit": "ng/mL"}, {"measurement": "plasma concentration, range", "setting": "[1]; genotype SULT1A1 *2/*2, n = 15", "value": "(212.67–782.92) ng/mL"}, {"measurement": "plasma concentration, mean ±SD", "setting": "[1]; genotype SULT1A1 wt/*2, n = 46", "value": "441.63 ± 176.28", "unit": "ng/mL"}, {"measurement": "plasma concentration, median", "setting": "[1]; genotype SULT1A1 wt/*2, n = 46", "value": 418.46, "unit": "ng/mL"}, {"measurement": "plasma concentration, range", "setting": "[1]; genotype SULT1A1 wt/*2, n = 46", "value": "(196.74–1191.13) ng/mL"}, {"measurement": "plasma concentration, mean ±SD", "setting": "[1]; genotype SULT1A1 wt/wt, n = 60", "value": "458.09 ± 209.96", "unit": "ng/mL"}, {"measurement": "plasma concentration, median", "setting": "[1]; genotype SULT1A1 wt/wt, n = 60", "value": 411.53, "unit": "ng/mL"}, {"measurement": "plasma concentration, range", "setting": "[1]; genotype SULT1A1 wt/wt, n = 60", "value": "(35.96–1210.09) ng/mL"}, {"measurement": "plasma concentration, mean ±SD", "setting": "[1]; genotype SULT1A2 *2/*2, n = 16", "value": "453.17 ± 128.87", "unit": "ng/mL"}, {"measurement": "plasma concentration, median", "setting": "[1]; genotype SULT1A2 *2/*2, n = 16", "value": 427.03, "unit": "ng/mL"}, {"measurement": "plasma concentration, range", "setting": "[1]; genotype SULT1A2 *2/*2, n = 16", "value": "(238.36–782.92) ng/mL"}, {"measurement": "plasma concentration, mean ±SD", "setting": "[1]; genotype SULT1A2 *2/*3, n = 13", "value": "478.66 ± 162.35", "unit": "ng/mL"}, {"measurement": "plasma concentration, median", "setting": "[1]; genotype SULT1A2 *2/*3, n = 13", "value": 527.52, "unit": "ng/mL"}, {"measurement": "plasma concentration, range", "setting": "[1]; genotype SULT1A2 *2/*3, n = 13", "value": "(228.81–676.02) ng/mL"}, {"measurement": "plasma concentration, mean ±SD", "setting": "[1]; genotype SULT1A2 *3/*3, n = 5", "value": "478.49 ± 198.83", "unit": "ng/mL"}, {"measurement": "plasma concentration, median", "setting": "[1]; genotype SULT1A2 *3/*3, n = 5", "value": 485.02, "unit": "ng/mL"}, {"measurement": "plasma concentration, range", "setting": "[1]; genotype SULT1A2 *3/*3, n = 5", "value": "(242.88–768.62) ng/mL"}, {"measurement": "plasma concentration, mean ±SD", "setting": "[1]; genotype SULT1A2 wt/*2, n = 33", "value": "478.01 ± 247.44", "unit": "ng/mL"}, {"measurement": "plasma concentration, median", "setting": "[1]; genotype SULT1A2 wt/*2, n = 33", "value": 399.40, "unit": "ng/mL"}, {"measurement": "plasma concentration, range", "setting": "[1]; genotype SULT1A2 wt/*2, n = 33", "value": "(212.67–1210.09) ng/mL"}, {"measurement": "plasma concentration, mean ±SD", "setting": "[1]; genotype SULT1A2 wt/*3, n = 16", "value": "425.36 ± 207.64", "unit": "ng/mL"}, {"measurement": "plasma concentration, median", "setting": "[1]; genotype SULT1A2 wt/*3, n = 16", "value": 324.21, "unit": "ng/mL"}, {"measurement": "plasma concentration, range", "setting": "[1]; genotype SULT1A2 wt/*3, n = 16", "value": "(167.40–952.85) ng/mL"}, {"measurement": "plasma concentration, mean ±SD", "setting": "[1]; genotype SULT1A2 wt/wt, n = 38", "value": "428.02 ± 162.17", "unit": "ng/mL"}, {"measurement": "plasma concentration, median", "setting": "[1]; genotype SULT1A2 wt/wt, n = 38", "value": 413.16, "unit": "ng/mL"}, {"measurement": "plasma concentration, range", "setting": "[1]; genotype SULT1A2 wt/wt, n = 38", "value": "(35.96–847.98) ng/mL"}, {"measurement": "plasma concentration, mean ±SD", "setting": "[1]; genotype SULT1E1 *2/*2, n = 5", "value": "455.57 ± 104.52", "unit": "ng/mL"}, {"measurement": "plasma concentration, median", "setting": "[1]; genotype SULT1E1 *2/*2, n = 5", "value": 497.51, "unit": "ng/mL"}, {"measurement": "plasma concentration, range", "setting": "[1]; genotype SULT1E1 *2/*2, n = 5", "value": "(311.12–550.12) ng/mL"}, {"measurement": "plasma concentration, mean ±SD", "setting": "[1]; genotype SULT1E1 wt/*2, n = 28", "value": "462.59 ± 167.53", "unit": "ng/mL"}, {"measurement": "plasma concentration, median", "setting": "[1]; genotype SULT1E1 wt/*2, n = 28", "value": 426.41, "unit": "ng/mL"}, {"measurement": "plasma concentration, range", "setting": "[1]; genotype SULT1E1 wt/*2, n = 28", "value": "(196.74–768.62) ng/mL"}, {"measurement": "plasma concentration, mean ±SD", "setting": "[1]; genotype SULT1E1 wt/wt, n = 88", "value": "448.30 ± 202.82", "unit": "ng/mL"}, {"measurement": "plasma concentration, median", "setting": "[1]; genotype SULT1E1 wt/wt, n = 88", "value": 399.40, "unit": "ng/mL"}]}
